Drawing on patent publication US8940720B2, “Macrocycles as factor XIa inhibitors” (Bristol-Myers Squibb Company, priority 2010, dated 2015), this text covers Ki for 26 compounds.

Broadly, the Ki is a dissociation constant, usually derived from enzyme kinetics or from competition with a known ligand. A lower Ki goes with a stronger hold on the target.

Where a name gives a salt, the structure may show the parent alone.

The target in this assay is purified human Factor XIa (Homo sapiens (Human), UniProt P03951). Description: Factor XIa enzyme inhibition assay (chromogenic substrate S-2366). The class given is biochemical. As to conditions: substrate S-2366, pH 7.4. The protocol: The effectiveness of compounds of the present invention as inhibitors of the coagulation Factors XIa, VIIa, IXa, Xa, XIIa, plasma kallikrein or thrombin, can be determined using a relevant purified serine protease, respectively, and an appropriate synthetic substrate. The rate of hydrolysis of the chromogenic or fluorogenic substrate by the relevant serine protease was measured both in the absence and presence of compounds of the present invention. […] A decrease in the rate of absorbance or fluorescence change in the presence of inhibitor is indicative of enzyme inhibition. Such methods are known to one skilled in the art. The results of this assay are expressed as the inhibitory constant, Ki.
purified human Factor XIa, sequence (P03951 388-625): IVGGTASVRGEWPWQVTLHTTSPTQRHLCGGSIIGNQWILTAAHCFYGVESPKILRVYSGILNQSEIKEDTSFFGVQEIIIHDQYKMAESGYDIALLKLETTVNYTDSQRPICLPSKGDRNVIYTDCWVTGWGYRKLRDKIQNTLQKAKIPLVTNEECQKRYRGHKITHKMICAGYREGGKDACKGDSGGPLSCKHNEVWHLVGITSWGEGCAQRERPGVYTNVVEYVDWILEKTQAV
purified human Factor XIa, sequence (P03951 19-387 partner): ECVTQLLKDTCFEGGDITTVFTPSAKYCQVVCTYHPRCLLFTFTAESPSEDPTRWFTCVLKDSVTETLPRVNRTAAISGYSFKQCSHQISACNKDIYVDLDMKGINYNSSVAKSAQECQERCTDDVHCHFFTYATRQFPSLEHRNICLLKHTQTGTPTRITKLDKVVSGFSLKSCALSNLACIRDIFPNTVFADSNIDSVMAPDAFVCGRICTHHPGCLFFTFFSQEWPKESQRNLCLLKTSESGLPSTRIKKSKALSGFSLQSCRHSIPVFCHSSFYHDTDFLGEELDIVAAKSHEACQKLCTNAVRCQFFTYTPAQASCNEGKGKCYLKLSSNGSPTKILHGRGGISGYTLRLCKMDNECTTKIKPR
Values of Ki were determined by allowing the protease to react with the substrate in the presence of the inhibitor. Reactions were allowed to go for periods of 20-180 minutes (depending on the protease) and the velocities (rate of absorbance or fluorescence change versus time) were measured. The following relationships were used to calculate Ki values: (vo−vs)/vs=I/(Ki(1+S/Km)) for a competitive inhibitor with one binding site; or vs/vo=A+((B−A)/1+((IC50/(I)n))); and Ki=IC50/(1+S/Km) for a competitive inhibitor where: […]
`COC(=O)Nc1ccc2c(c1)NCCCCC[C@H](NC(=O)/C=C/c1c(C(C)=O)ccc(Cl)c1F)c1nc-2c(C#N)[nH]1` [Example I-265]: the Ki was determined as 133 nM. For `COC(=O)Nc1ccc2c(c1)NC(C(F)(F)F)CC/C=C/C[C@H](NC(=O)/C=C/c1cc(Cl)ccc1-n1cnnn1)c1nc-2c[nH]1` (some centres unmarked) [Example I-211] the value was 2170 nM; for `COC(=O)Nc1ccc2c(c1)NC(=O)CCCC[C@H](NC(=O)c1ccc3ncccc3c1)c1nc-2c[nH]1` [Example I-14], 2920 nM; for `CCOC(=O)[C@H]1CCCC[C@H](NC(=O)/C=C/c2cc(Cl)ccc2-n2cnnn2)c2nc(c(C)[nH]2)-c2ccc(NC(=O)OC)cc2N1` [Example I-242, (9R,14S)-14-[(E)-3-(5-Chloro-2-tetrazol-1-yl-phenyl)-acryloylamino]-5-methoxycarbonylamino-17-methyl-8,16,18-triaza-tricyclo[13.2.1.0^2,7]octadeca-1(17),2,4,6,15(18)-pentaene-9-carboxylic acid ethyl ester, bis-trifluoroacetic acid salt], 456 nM. For `COC(=O)Nc1ccc2c(c1)NC(=O)CCCC[C@H](NC(=O)c1ccc(C(=N)N)cc1)c1nc-2c[nH]1` [Example I-4] the value was below 5 nM; for `COC(=O)Nc1ccc2c(c1)NC(=O)CC/C=C/C[C@H](NC(=O)c1ccc3c(c1)CCC[C@@H]3N)c1nc-2c[nH]1` [Example I-153], 1650 nM. To `O=C(/C=C/c1cc(Cl)ccc1-n1cnnn1)N[C@H]1C/C=C/CCC(=O)Nc2ccc(F)cc2-c2nc1[nH]c2Cl` [Example I-227] belongs below 5 nM; to `COC(=O)Nc1ccc2c(c1)N[C@@H](C(=O)NCc1ccccn1)CCCC[C@H](NC(=O)/C=C/c1cc(Cl)ccc1-n1cnnn1)c1cncc-2c1` [II-58], 21 nM; to `COC(=O)Nc1ccc2c(c1)NC(=O)CCCCC(NC(=O)/C=C/c1cc(Cl)ccc1-n1cnnn1)c1cc-2nc(C)n1` (centres unmarked) [II-10], 23 nM. Regarding `COC(=O)Nc1ccc2c(c1)/N=C/CCCC[C@H](NC(=O)/C=C/c1cc(Cl)ccc1-n1cnnn1)c1nc-2c(F)[nH]1` [Example I-107, {(E)-(S)-14-[(E)-3-(5-Chloro-2-tetrazol-1-yl-phenyl)-acryloylamino]-17-fluoro-8,16,18-triaza-tricyclo[13.2.1.0^2,7]octadeca-1(17),2,4,6,8,15(18)-hexaen-5-yl}-carbamic acid methyl ester, trifluoroacetic acid salt], the affinity corresponds to a Ki of 29 nM. To `COC(=O)Nc1ccc2c(c1)N[C@@H](C(=O)N1CCN(C)CC1)CCCC[C@H](NC(=O)/C=C/c1cc(Cl)ccc1-n1cnnn1)c1cc-2ccn1` [II-35] belongs below 5 nM; to `COC(=O)Nc1ccc2c(c1)NC(C(N)=O)C(C)CCC[C@H](NC(=O)/C=C/c1cc(Cl)ccc1-n1cnnn1)c1nc-2c[nH]1` (some centres unmarked) [Example I-114], 296 nM. With `COC(=O)Nc1ccc2c(c1)NC(=O)CC/C=C/C[C@H](NC(=O)/C=C/c1c(C(F)(F)F)ccc(Cl)c1F)c1nc-2c(Cl)[nH]1` [Example I-311], the Ki was below 5 nM. With `O=C(/C=C/c1cc(Cl)ccc1-n1cnnn1)N[C@H]1CCCCCNc2cc(NC(=O)OC[C@H]3CCCO3)ccc2-c2c[nH]c1n2` [Example I-124], the Ki is below 5 nM. For `COC(=O)Nc1ccc2c(c1)CCCCCC[C@H](NC(=O)/C=C/c1cc(Cl)ccc1-n1cnnn1)c1nc-2c[nH]1` [Example 6, {(S)-14-[(E)-3-(5-Chloro-2-tetrazol-1-yl-phenyl)-acryloylamino]-16,18-diaza-tricyclo[13.2.1.0^2,7]octadeca-1(17),2,4,6,15(18)-pentaen-5-yl}-carbamic acid methyl ester] the value was 34 nM; for `COC(=O)Nc1ccc2c(c1)NC(=O)CCC(C)CC[C@H](NC(=O)/C=C/c1cc(Cl)ccc1-n1cnnn1)c1nc-2c[nH]1` (single isomer, unassigned) [Example 61], below 5 nM.

`COC(=O)Nc1ccc2c(c1)NCCCCC[C@H](NC(=O)/C=C/c1cc(Cl)ccc1-n1cnnn1)c1nc-2c[nH]1` [Example 11, {(S)-14-[(E)-3-(5-Chloro-2-tetrazol-1-yl-phenyl)-acryloylamino]-8,16,18-triaza-tricyclo[13.2.1.0^2,7]octadeca-1(17),2,4,6,15(18)-pentaen-5-yl}-carbamic acid methyl ester] showed an inhibitory constant (Ki) of 6 nM. `COC(=O)Nc1ccc2c(c1)N(C(=O)OC)CCCCC[C@H](NC(=O)/C=C/c1cc(Cl)ccc1-n1cnnn1)c1nc-2c[nH]1` [Example I-108] came in with an inhibition constant (Ki) of 3870 nM.

For the compound `O=C(/C=C/c1cc(Cl)ccc1-n1cnnn1)N[C@H]1CC=CCCC(=O)Nc2ccccc2C2=NN=C1O2` (mixture of isomers) [Example 122, (E)-3-(5-Chloro-2-tetrazol-1-yl-phenyl)-N-((S)-9-oxo-19-oxa-8,17,18-triaza-tricyclo[14.2.1.0^2,7]nonadeca-1(18),2,4,6,12,16-hexaen-15-yl)-acrylamide, and (Z)-3-(5-Chloro-2-tetrazol-1-yl-phenyl)-N-((S)-9-oxo-19-oxa-8,17,18-triaza-tricyclo[14.2.1.0^2,7]nonadeca-1(18),2,4,6,12,16-hexaen-15-yl)-acrylamide], the inhibition constant (Ki) is 25 nM. To `COC(=O)Nc1ccc2c(c1)CC(C(=O)N(C)C)CCCC[C@H](NC(=O)/C=C/c1cc(Cl)ccc1-n1cnnn1)c1nc-2c[nH]1` (some centres unmarked) [Example I-258] belongs 947 nM.

In the case of `COC(=O)Nc1ccc2c(c1)NCCCCC[C@H](NC(=O)/C=C/c1cc(Cl)ccc1-n1cnnn1)c1nc-2c(C(=O)N(C)C)[nH]1` [Example I-299], affinity was put at a Ki of 19 nM. The compound `COC(=O)Nc1ccc2c(c1)NC(=O)CC/C=C/CC(NC(=O)/C=C/c1cc(Cl)ccc1-n1cnnn1)c1cccc-2c1` (centres unmarked) [Example 93, {(E)-15-[(E)-3-(5-Chloro-2-tetrazol-1-yl-phenyl)-acryloylamino]-9-oxo-8-aza-tricyclo[14.3.1.0^2,7]icosa-1(20),2,4,6,12,16,18-heptaen-5-yl}-carbamic acid methyl ester] registered an inhibitory constant (Ki) below 5 nM.

With `COC(=O)Nc1ccc2c(c1)NC(=O)CCCC[C@H](NC(=O)c1ccc3cccnc3c1)c1nc-2c[nH]1` [Example I-262], the affinity, expressed as Ki, was 675 nM.

As for `COC(=O)Nc1ccc2c(c1)NC(=O)CCCC[C@H](NC(=O)/C=C/c1cc(Cl)ccc1-n1cnnn1)C1=NC=C2O1` [Example I-134, Methyl N-[(14S)-14-[(2E)-3-[5-chloro-2-(1H-1,2,3,4-tetrazol-1-yl)phenyl]prop-2-enamido]-9-oxo-18-oxa-8,16-diazatricyclo[13.2.1.0^2,7]octadeca-1(17),2(7),3,5,15-pentaen-5-yl]carbamate, trifluoroacetic acid salt], the Ki is below 5 nM. Compound `COC(=O)Nc1ccc2c(c1)NC(=O)CCCC[C@H](NC(=O)c1ccc3c(c1)CCCN3)c1nc-2c[nH]1` [Example I-13] yielded a Ki of 311 nM. For `CCOC(=O)C1CCCCC(NC(=O)/C=C/c2cc(Cl)ccc2-n2cnnn2)c2cc(cc(=O)[nH]2)-c2ccc(NC(=O)OC)cc2N1` (centres unmarked) [II-62] the value was below 5 nM.
